# Laboratory results as given in US8859625B2, “Methods to prepare penta-1,4-dien-3-ones and substituted cyclohexanones and derivatives with antitumoral and antiparasitic properties, the compounds and their uses” (Universidade Bandeirante de Sao Paulo-Academia, Paulista …, priority 2006, dated 2014).
# Assays:
# [1] = system: peritoneal normal macrophages; assay: Cytotoxic effect on peritoneal normal macrophages by the MTT method; type: cell-based, Balb-C mice; details: Mus musculus, Macrophage, diluted in Miglyol 810, 24 hours
# Protocol: Cytotoxic Effect of HB-1 Compound on Peritoneal Normal Macrophages Assessed by the MTT Method.
# Peritoneal macrophages were obtained from normal Balb-C mice through the following procedure: abdominal cavities of the animals were opened under sterile conditions under a laminar flow and exposed. A 2 mL volume of saline solution, containing 5000 U frosty heparin (Liquemine-Roche), was injected into the cavity, followed by a massage and collection of the peritoneal wash irrigation liquid, centrifuged at 2000 rpm for 10 minutes at 4° C.
# The suspension was resuspended with RPMI-1640 culture medium supplemented with 10% bovine fetal serum, with the count cell number adjusted to 10^6/mL in a Neubauer chamber. Aliquots of the macrophages were cultivated on plates with 96 flat bottom wells, incubated with and without HB-1 compound diluted in Miglyol 810®. After 24 hours, the plates were submitted to the cytotoxic and antiproliferative effect assessment by the MTT calorimetric method.
# [2] = system: promastigote forms of Leishmania (L) amazonensis (isolate LV79); assay: Promastigote proliferation in Warren medium, Neubauer chamber count; type: cell-based
# Protocol: (§1) Compounds are solubilized with dimethyl sulfoxide (DMSO) to produce a stock solution from which samples with different concentrations are obtained, by adding the culture medium in sufficient volume as required to attain the first desired concentration with the other concentrations being obtained by serial dilution of this first one, at ratio 2. The cultures are incubated at 22° C. or 34° C. for promastigotes and amastigotes, respectively.
# (§2) As a positive control for parasite viability evaluation, only culture medium and parasite, without any other addition, were used. As toxicity control for the solvent present in compound composition, parasite forms were incubated with DMSO diluted in culture medium.
# (§3) To quantify the promastigotes, Neubauer chambers are used and the cultures are quantified every 24 hours throughout the incubation period scheduled for each experiment. The samples are prepared from an initial dilution of 20 μL of the culture into 180 μL of the saline solution formulated (PBS+2% formaldehyde) to obtain a 1/10 dilution. Whenever necessary, serial dilutions may be performed from the first dilution. For all experiments, parasite forms should be incubated with several HB-1 concentrations, its respective controls with DMSO (we should have in mind that the initial HB-1 stock solution was prepared with DMSO and that its toxicity in relation to the parasite forms have to be assessed) and the normal culture, without any component additioned to the medium. Countings are performed as duplicates, by two different people and the final result is expressed as the arithmetic average from the two countings. The same procedure is employed to quantify the amastigote forms.
# Promastigote forms of Leishmania (L) amazonensis (isolate LV79, 8th passage for the culture medium, day 7 of culture, stationary phase) are incubated in a proportion of 10^6 promastigotes/mL in Warren medium, 3.0 mL final volume, in the presence of different concentrations of HB-1 and of the respective controls in equivalent volume of DMSO and culture medium, as positive control for proliferation and viability. The effect of HB-1 on the promastigotes of Leishmania amazonensis cultivated in Warren medium is shown in the next Table and FIG. 33.
# [3] = system: Leishmania (L) amazonensis promastigote forms (isolate LV79); assay: Promastigote proliferation in RPMI medium, Neubauer chamber count; type: cell-based
# Protocol: as §1, §2, §3
# Leishmania (L) amazonensis promastigote forms (isolade LV79, 1st passage in culture medium, day 7 of culture, stationary phase) are incubated at a proportion of 10^6 promastigotes/mL of RPMI medium, 3.0 mL final volume, in the presence of different concentrations of HB-1 and of the respective controls in DMSO. The effect of HB-1 compound on the proliferation of Leishmania (L) amazonensis promastigotes-RPMI medium is shown in the next Table and in FIG. 34.
structure (smiles),measurement,setting,value
"COc1cc(C=CC(=O)C=Cc2ccc(O)c(OC)c2)ccc1O [HB-1, 1,5-Bis-(4-hydroxy-3-methoxy-phenyl)-penta-1,4-dien-3-one]",IC50,[1],16.9 µg/mL
same,N^o. of promastigotes/mL (×10^6),"[2]; HB-1 3.12 μg/mL, 24 hours, Warren medium",3.0 ×10^6 promastigotes/mL
same,N^o. of promastigotes/mL (×10^6),"[2]; HB-1 3.12 μg/mL, 48 hours, Warren medium",5.95 ×10^6 promastigotes/mL
same,N^o. of promastigotes/mL (×10^6),"[2]; HB-1 3.12 μg/mL, 72 hours, Warren medium",10 ×10^6 promastigotes/mL
same,N^o. of promastigotes/mL (×10^6),"[2]; HB-1 3.12 μg/mL, 96 hours, Warren medium",11 ×10^6 promastigotes/mL
same,N^o. of promastigotes/mL (×10^6),"[2]; HB-1 3.12 μg/mL, 120 hours, Warren medium",17 ×10^6 promastigotes/mL
same,N^o. of promastigotes/mL (×10^6),"[2]; HB-1 6.25 μg/mL, 24 hours, Warren medium",2.5 ×10^6 promastigotes/mL
same,N^o. of promastigotes/mL (×10^6),"[2]; HB-1 6.25 μg/mL, 48 hours, Warren medium",3.95 ×10^6 promastigotes/mL
same,N^o. of promastigotes/mL (×10^6),"[2]; HB-1 6.25 μg/mL, 72 hours, Warren medium",7.15 ×10^6 promastigotes/mL
same,N^o. of promastigotes/mL (×10^6),"[2]; HB-1 6.25 μg/mL, 96 hours, Warren medium",13.0 ×10^6 promastigotes/mL
same,N^o. of promastigotes/mL (×10^6),"[2]; HB-1 6.25 μg/mL, 120 hours, Warren medium",18.6 ×10^6 promastigotes/mL
same,effect on promastigotes in words,"[2]; HB-1 12.5 μg/mL to 3.12 μg/mL, Warren medium",sub-lethal
same,N^o. of promastigotes/mL (×10^6),"[2]; HB-1 12.5 μg/mL, 24 hours, Warren medium",2.55 ×10^6 promastigotes/mL
same,N^o. of promastigotes/mL (×10^6),"[2]; HB-1 12.5 μg/mL, 48 hours, Warren medium",2.25 ×10^6 promastigotes/mL
same,N^o. of promastigotes/mL (×10^6),"[2]; HB-1 12.5 μg/mL, 72 hours, Warren medium",3.9 ×10^6 promastigotes/mL
same,N^o. of promastigotes/mL (×10^6),"[2]; HB-1 12.5 μg/mL, 96 hours, Warren medium",5.9 ×10^6 promastigotes/mL
same,N^o. of promastigotes/mL (×10^6),"[2]; HB-1 12.5 μg/mL, 120 hours, Warren medium",18.3 ×10^6 promastigotes/mL
same,N^o. of promastigotes/mL (×10^6),"[2]; HB-1 25 μg/mL, 24 hours, Warren medium",3.25 ×10^6 promastigotes/mL
same,N^o. of promastigotes/mL (×10^6),"[2]; HB-1 25 μg/mL, 48 hours, Warren medium",1.8 ×10^6 promastigotes/mL
same,N^o. of promastigotes/mL (×10^6),"[2]; HB-1 25 μg/mL, 72 hours, Warren medium",0.4 ×10^6 promastigotes/mL
same,N^o. of promastigotes/mL (×10^6),"[2]; HB-1 25 μg/mL, 96 hours, Warren medium",0.1 ×10^6 promastigotes/mL
same,N^o. of promastigotes/mL (×10^6),"[2]; HB-1 25 μg/mL, 120 hours, Warren medium",0 ×10^6 promastigotes/mL
same,time of culture to 100% mortality,"[2]; HB-1 25 μg/mL, Warren medium",120 h
same,N^o. of promastigotes/mL (×10^6),"[2]; HB-1 50 μg/mL, 24 hours, Warren medium",2.1 ×10^6 promastigotes/mL
same,N^o. of promastigotes/mL (×10^6),"[2]; HB-1 50 μg/mL, 48 hours, Warren medium",0.4 ×10^6 promastigotes/mL
same,N^o. of promastigotes/mL (×10^6),"[2]; HB-1 50 μg/mL, 72 hours, Warren medium",0.1 ×10^6 promastigotes/mL
same,N^o. of promastigotes/mL (×10^6),"[2]; HB-1 50 μg/mL, 96 hours, Warren medium",0 ×10^6 promastigotes/mL
same,N^o. of promastigotes/mL (×10^6),"[2]; HB-1 50 μg/mL, 120 hours, Warren medium",0 ×10^6 promastigotes/mL
same,time of culture to 100% mortality,"[2]; HB-1 50 μg/mL, Warren medium",96 h
same,N^o. of promastigotes/mL (×10^6),"[2]; HB-1 100 μg/mL, 24 hours, Warren medium",1.15 ×10^6 promastigotes/mL
same,N^o. of promastigotes/mL (×10^6),"[2]; HB-1 100 μg/mL, 48 hours, Warren medium",0.2 ×10^6 promastigotes/mL
same,N^o. of promastigotes/mL (×10^6),"[2]; HB-1 100 μg/mL, 72 hours, Warren medium",0 ×10^6 promastigotes/mL
same,N^o. of promastigotes/mL (×10^6),"[2]; HB-1 100 μg/mL, 96 hours, Warren medium",0 ×10^6 promastigotes/mL
same,N^o. of promastigotes/mL (×10^6),"[2]; HB-1 100 μg/mL, 120 hours, Warren medium",0 ×10^6 promastigotes/mL
same,time of culture to 100% mortality,"[2]; HB-1 100 μg/mL, Warren medium",72 h
same,inhibition at 25 µg/mL,"[2]; Leishmania, 72 h, read-out: inhibition of parasite proliferation",81%
same,inhibition at 50 µg/mL,"[2]; Leishmania, HB-1 50 μg/mL, after 72 hours, Warren medium, read-out: inhibition of parasite proliferation",95.8%
same,inhibition at 100 µg/mL,"[2]; Leishmania, HB-1 100 μg/mL, after 72 hours, Warren medium, read-out: inhibition of parasite proliferation",100%
same,N^o. of promastigotes/mL (×10^6),"[3]; HB-1 3.12 μg/mL, 24 hours",1.6 ×10^6 promastigotes/mL
same,N^o. of promastigotes/mL (×10^6),"[3]; HB-1 3.12 μg/mL, 48 hours",2.1 ×10^6 promastigotes/mL
same,N^o. of promastigotes/mL (×10^6),"[3]; HB-1 3.12 μg/mL, 72 hours",2.1 ×10^6 promastigotes/mL
same,N^o. of promastigotes/mL (×10^6),"[3]; HB-1 3.12 μg/mL, 144 hours",2.4 ×10^6 promastigotes/mL
same,N^o. of promastigotes/mL (×10^6),"[3]; HB-1 6.25 μg/mL, 24 hours",0.8 ×10^6 promastigotes/mL
same,N^o. of promastigotes/mL (×10^6),"[3]; HB-1 6.25 μg/mL, 48 hours",1.0 ×10^6 promastigotes/mL
same,N^o. of promastigotes/mL (×10^6),"[3]; HB-1 6.25 μg/mL, 72 hours",0.7 ×10^6 promastigotes/mL
same,N^o. of promastigotes/mL (×10^6),"[3]; HB-1 6.25 μg/mL, 144 hours",0.3 ×10^6 promastigotes/mL
same,N^o. of promastigotes/mL (×10^6),"[3]; HB-1 12.5 μg/mL, 24 hours",0.7 ×10^6 promastigotes/mL
same,N^o. of promastigotes/mL (×10^6),"[3]; HB-1 12.5 μg/mL, 48 hours",0 ×10^6 promastigotes/mL
same,N^o. of promastigotes/mL (×10^6),"[3]; HB-1 12.5 μg/mL, 72 hours",0 ×10^6 promastigotes/mL
same,N^o. of promastigotes/mL (×10^6),"[3]; HB-1 12.5 μg/mL, 144 hours",0 ×10^6 promastigotes/mL
same,N^o. of promastigotes/mL (×10^6),"[3]; HB-1 25 μg/mL, 24 hours",0.5 ×10^6 promastigotes/mL
same,N^o. of promastigotes/mL (×10^6),"[3]; HB-1 25 μg/mL, 48 hours",0 ×10^6 promastigotes/mL
same,N^o. of promastigotes/mL (×10^6),"[3]; HB-1 25 μg/mL, 72 hours",0 ×10^6 promastigotes/mL
same,N^o. of promastigotes/mL (×10^6),"[3]; HB-1 25 μg/mL, 144 hours",0 ×10^6 promastigotes/mL
same,N^o. of promastigotes/mL (×10^6),"[3]; HB-1 50 μg/mL, 24 hours",0.1 ×10^6 promastigotes/mL
same,N^o. of promastigotes/mL (×10^6),"[3]; HB-1 50 μg/mL, 48 hours",0 ×10^6 promastigotes/mL
same,N^o. of promastigotes/mL (×10^6),"[3]; HB-1 50 μg/mL, 72 hours",0 ×10^6 promastigotes/mL
same,N^o. of promastigotes/mL (×10^6),"[3]; HB-1 50 μg/mL, 144 hours",0 ×10^6 promastigotes/mL
same,inhibitory effect (=mortality),"[3]; HB-1 100 μg/mL to 12.5 μg/mL, 48 hours",100%
same,N^o. of promastigotes/mL (×10^6),"[3]; HB-1 100 μg/mL, 24 hours",0 ×10^6 promastigotes/mL
same,N^o. of promastigotes/mL (×10^6),"[3]; HB-1 100 μg/mL, 48 hours",0 ×10^6 promastigotes/mL
same,N^o. of promastigotes/mL (×10^6),"[3]; HB-1 100 μg/mL, 72 hours",0 ×10^6 promastigotes/mL
same,N^o. of promastigotes/mL (×10^6),"[3]; HB-1 100 μg/mL, 144 hours",0 ×10^6 promastigotes/mL
